Assays:
PC3 cells = assay: Transwell migration assay in PC3 prostate cancer cells; type: cell-based, human; details: for effect on PC3 cell migration: compounds tested at 0.1 to 100 μM, compared with 14; for block of SAHA-stimulated cell migration in PC3 cells / block of docetaxel-stimulated cell migration in PC3 cells: second generation inhibitors at 20 μM, simultaneous treatment; for effect of chemotherapeutic drug on cell migration in PC3 cells: drug alone
Experimental: (§1) In vitro transwell migration assays were conducted as described previously (Caggia et al., “Novel Role of Gialpha2 in Cell Migration: Downstream of PI3-kinase-AKT and RacI in Prostate Cancer Cells,” J Cell Physiol, 234:802-815 (2018); Caggia et al., “Small Molecule Inhibitors Targeting Galphai2 Protein Attenuate Migration of Cancer Cells,” Cancers (Basel), 12(6):1631 (2020)). Briefly, the outside of the transwell inserts (BD Biosciences, San Jose, CA) were coated with 50 μl of rat tail collagen ([…]; BD Biosciences, San Jose, CA) overnight at 4° C. The next day, 50 μl of the aforementioned rat tail collagen were added for 1 hour at room temperature into the transwell inserts, to coat the inside of the membranes. DU145, PC3 and LNCaP cells were trypsinized and suspended at the appropriate density (3×10^5 cells/insert for DU145 and PC3, and 5×10^5 cells/insert for LNCaP) in MEM or RPMI containing 0.2% BSA (Sigma-Aldrich, St. Louis, MO). Chemoattractant solution, used as positive control, was made by diluting the epidermal growth factor (EGF) (10 ng/ml) into MEM (PC3 and DU145) or RPMI (LNCaP) supplemented with 0.2% BSA. Media containing 0.2% BSA served as a control. Control and EGF solutions ([…]) were added into the wells of a 24-well plate. Aliquots of 100 μl of cell suspensions, treated with or without the different compounds at several concentrations, were loaded into the transwell inserts and the plates were incubated at 37° C. for 5 hours (DU145 and PC3) or 24 hours (LNCaP). The cells inside the transwell inserts were removed by cotton swabs, and the cleaned inserts were fixed with 350 μl of 4% paraformaldehyde (pH 7.5) for 20 minutes at room temperature. Cells that had migrated to the outside of the transwell insert membrane were stained with 3 ng/ml of DAPI solution (Thermo Fisher Scientific, Eugene, OR) and images of five non-overlapping fields were captured using Axiovert 200M, Carl Zeiss (Thornwood, NY) microscope. The number of stained nuclei were determined with automatic counting using image analysis software (ZEN 2012; Carl Zeiss). Results were expressed as migration index defined as the average number of cells per field for test substance/the average number of cells per field for the medium control.
The effects of the newly synthesized compounds on the migratory behavior of PC3 cells were investigated in transwell migration assays as inventors have done before (Caggia et al., “Small Molecule Inhibitors Targeting Galphai2 Protein Attenuate Migration of Cancer Cells,” Cancers (Basel), 12(6):1631 (2020)). Compounds were tested at a concentration range of 0.1 to 100 μM. […] To potentially obtain insight into the disparity in their Gαi inhibition activities, molecular docking was performed on the enantiomers of 6 (6-R and 6-S) and 15 (15-R and 15-S). […] This slightly weaker binding affinity may partially explain the disproportionately weaker potency of 15 relative to 6. Other molecular factors, such as those which led to the attenuated potency observed with amino- to ether-group switch in the 7/10 pair, may contribute to the reduced potency of 15. Finally, most of these compounds have no effects on the morphology of PC3 cells or viability of several cancer cells at the concentrations as high as 100 μM.

[1] = Stability in human liver microsomes; type: in vitro ADME
Experimental: (§2) On the strength of their potency, the stability of 6, 7 and 10 was determined in human and mouse plasma and liver microsomes.

[2] = Stability in mouse liver microsomes; type: in vitro ADME
Experimental: as §2

DU145 cells = assay: Transwell migration assay in DU145 prostate cancer cells; type: cell-based, human; details: drug alone
Experimental: In vitro transwell migration assays were conducted as described previously (Caggia et al., “Novel Role of Gialpha2 in Cell Migration: Downstream of PI3-kinase-AKT and RacI in Prostate Cancer Cells,” J Cell Physiol, 234:802-815 (2018); Caggia et al., “Small Molecule Inhibitors Targeting Galphai2 Protein Attenuate Migration of Cancer Cells,” Cancers (Basel), 12(6):1631 (2020)). Briefly, the outside of the transwell inserts (BD Biosciences, San Jose, CA) were coated with 50 μl of rat tail collagen ([…]; BD Biosciences, San Jose, CA) overnight at 4° C. The next day, 50 μl of the aforementioned rat tail collagen were added for 1 hour at room temperature into the transwell inserts, to coat the inside of the membranes. DU145, PC3 and LNCaP cells were trypsinized and suspended at the appropriate density (3×10^5 cells/insert for DU145 and PC3, and 5×10^5 cells/insert for LNCaP) in MEM or RPMI containing 0.2% BSA (Sigma-Aldrich, St. Louis, MO). Chemoattractant solution, used as positive control, was made by diluting the epidermal growth factor (EGF) (10 ng/ml) into MEM (PC3 and DU145) or RPMI (LNCaP) supplemented with 0.2% BSA. Media containing 0.2% BSA served as a control. Control and EGF solutions ([…]) were added into the wells of a 24-well plate. Aliquots of 100 μl of cell suspensions, treated with or without the different compounds at several concentrations, were loaded into the transwell inserts and the plates were incubated at 37° C. for 5 hours (DU145 and PC3) or 24 hours (LNCaP). […] The number of stained nuclei were determined with automatic counting using image analysis software (ZEN 2012; Carl Zeiss). Results were expressed as migration index defined as the average number of cells per field for test substance/the average number of cells per field for the medium control.
To determine whether the induction of cell migration by AR-antagonists and HDACi was limited to only AR-positive cells, the effects of anti-androgens and HDACi and docetaxel in AR-negative DU145 and PC3 cells were determined.

LNCaP cells = assay: Transwell migration assay in LNCaP prostate cancer cells; type: cell-based, human; details: drug alone; for effect of chemotherapeutic drug on cell migration in LNCaP cells: several concentrations, 24 hours
Experimental: as §1
To determine the effects of HDACi on prostate cancer cell migration, migration assays were performed in androgen receptor (AR)-positive LNCaP cells using several concentrations of SAHA (0.1, 0.25, 0.5, 1, 2, 4 μM), a commercially available HDACi. […] Inventors have previously developed a very potent HDACi inhibitor (SBI-I-19), coupled with an anti-androgen, enzalutamide, which selectively targets androgen sensitive prostate cancer cells for its cytotoxic effects (Gryder et al., “Selectively Targeting Prostate Cancer with Antiandrogen Equipped Histone Deacetylase Inhibitors,” ACS Chem Biol, 8:2550-2560 (2013)). The possible effects of different concentrations of SBI-I-19 on cell migration in LNCaP cells were determined.

## CC(Nc1ccc(O)cc1)c1cc2ccccc2n1C (racemic) [Compound 6, 4-((1-(1-methyl-1H-indol-2-yl)ethyl)amino)phenol]
PC3 cells; FIG. 13, concentration not given
  block of stimulatory effects of Docetaxel on PC3 cell migration: block the stimulatory effects of Docetaxel on PC3 cell migration
PC3 cells
  effect on PC3 cell migration: more effective relative to 14
  block of SAHA-stimulated cell migration in PC3 cells: blocked the stimulatory effects of docetaxel and SAHA in PC3 cells
  block of docetaxel-stimulated cell migration in PC3 cells: blocked the stimulatory effects of docetaxel and SAHA in PC3 cells
[1]
  stability in liver microsomes: robustly stable in both species
[2]
  stability in liver microsomes: robustly stable in both species

## CSc1ccc(NC(C)c2cc3ccccc3n2C)cc1 (racemic) [Compound 7, N-(1-(1-methyl-1H-indol-2-yl)ethyl)-4-(methylthio)aniline]
PC3 cells; EGF-stimulated
  block of stimulatory effects of EGF on PC3 cell migration: blocks the stimulatory effects of EFG on PC3 cell migration
PC3 cells
  effect on PC3 cell migration: more effective relative to 14
  block of SAHA-stimulated cell migration in PC3 cells: blocked the stimulatory effects of docetaxel and SAHA in PC3 cells
  block of docetaxel-stimulated cell migration in PC3 cells: blocked the stimulatory effects of docetaxel and SAHA in PC3 cells
[1]
  stability in liver microsomes: only stable in the human microsome
[2]
  stability in liver microsomes: only stable in the human microsome

## CC(Oc1ccc(S(C)(=O)=O)cc1)c1cc2ccccc2n1C (racemic) [Compound 12, 1-methyl-2-(1-(4-(methylsulfonyl)phenoxy)ethyl)-1H-indole]
PC3 cells
  effect on PC3 cell migration: less effective, eliciting reduced anti-migration activities relative to the other compounds

## CC(Oc1ccc(O)cc1)c1cc2ccccc2n1C (racemic) [Compound 15, 4-(1-(1-methyl-1H-indol-2-yl)ethoxy)phenol]
PC3 cells
  effect on PC3 cell migration: did not inhibit the migration of PC3 cells at the maximum concentration tested

## Cn1c(/C=N/c2ccc(O)cc2)cc2ccccc21 [Compound 3, (E)-4-(((1-methyl-1H-indol-2-yl)methylene)amino)phenol]
PC3 cells
  effect on PC3 cell migration: concentration dependent reduction of PC3 cell migration, but less efficiently relative to 14

## CSc1ccc(/N=C(\C)c2cc3ccccc3n2C)cc1 [Compound 4, (E)-1-(1-methyl-1H-indol-2-yl)-N-(4-(methylthio)phenyl)ethan-1-imine]
PC3 cells
  effect on PC3 cell migration: concentration dependent reduction of PC3 cell migration, but less efficiently relative to 14

## Cn1c(CNc2ccc(O)cc2)cc2ccccc21 [Compound 5, 4-(((1-methyl-1H-indol-2-yl)methyl)amino)phenol]
PC3 cells
  effect on PC3 cell migration: comparable potency

## CSc1ccc(OC(C)c2cc3ccccc3n2C)cc1 (stereo not drawn) [Compound 10, 1-methyl-2-(1-(4-(methylthio)phenoxy)ethyl)-1H-indole]
PC3 cells
  effect on PC3 cell migration: less potent compared to 7
  block of SAHA-stimulated cell migration in PC3 cells: blocked the stimulatory effects of docetaxel and SAHA in PC3 cells
  block of docetaxel-stimulated cell migration in PC3 cells: blocked the stimulatory effects of docetaxel and SAHA in PC3 cells
[1]
  stability in liver microsomes: only stable in the human microsome
[2]
  stability in liver microsomes: only stable in the human microsome

## CC(Oc1ccc([S+](C)[O-])cc1)c1cc2ccccc2n1C (stereo not drawn) [Compound 13, 1-methyl-2-(1-(4-(methylsulfinyl)phenoxy)ethyl)-1H-indole]
PC3 cells
  effect on PC3 cell migration: less effective, eliciting reduced anti-migration activities relative to the other compounds

## O=C(CCCCCCC(=O)Nc1ccccc1)NO [SAHA]
PC3 cells
  effect of chemotherapeutic drug on cell migration in PC3 cells: induced increase in cell migration
DU145 cells
  effect of chemotherapeutic drug on cell migration in DU145 cells: increased cell migration
LNCaP cells
  effect of chemotherapeutic drug on cell migration in LNCaP cells: significant dose-dependent increase in cell migration

## CC1(C)C(=O)N(c2ccc(C#N)c(C(F)(F)F)c2)C(=O)N1Cc1ccc(-c2cn(CCCCC(=O)NO)nn2)cc1 [SBI-I-19]
DU145 cells
  effect of chemotherapeutic drug on cell migration in DU145 cells: increased cell migration
LNCaP cells
  effect of chemotherapeutic drug on cell migration in LNCaP cells: significant dose-dependent increase in cell migration

## CC(O)(CS(=O)(=O)c1ccc(F)cc1)C(=O)Nc1ccc(C#N)c(C(F)(F)F)c1 (stereo not drawn) [bicalutamide]
LNCaP cells
  concentration of maximum induction of cell migration in LNCaP cells: 2.5 µM

## CC(=O)O[C@@]12CO[C@@H]1C[C@H](O)[C@@]1(C)C(=O)[C@H](O)C3=C(C)[C@@H](OC(=O)[C@H](O)[C@@H](NC(=O)OC(C)(C)C)c4ccccc4)C[C@@](O)([C@@H](OC(=O)c4ccccc4)[C@H]21)C3(C)C [docetaxel, reference compound]
PC3 cells
  effect of chemotherapeutic drug on cell migration in PC3 cells: induced increase in cell migration

## CNC(=O)c1ccc(N2C(=S)N(c3ccc(C#N)c(C(F)(F)F)c3)C(=O)C2(C)C)cc1F [enzalutamide]
DU145 cells
  effect of chemotherapeutic drug on cell migration in DU145 cells: increased cell migration
LNCaP cells
  concentration of maximum induction of cell migration in LNCaP cells: 2.5 µM
  effect of chemotherapeutic drug on cell migration in LNCaP cells: dose-dependent increase in cell migration
